For six molecules, k cat and Km results are on record in ChEMBL document CHEMBL1131760, “Substrate-selective mechanisms in biocatalysis demonstrated with a versatile and efficient aldolase antibody” (Bioorg Med Chem Lett, 1999).

Data set [1] can be described thus: Catalytic constant from Lineweaver-Burke analysis for antibody catalyzed retrograde aldol reaction with the compound. Format: ADME.
The nature of data set [2]: Michaelis constant (Km) was determined. Format: ADME.

SMILES strings stand for the structures.

On to `CC(=O)CC(O)/C=C/c1ccc(C(F)(F)F)cc1` (configuration not stated), for which the k cat in data set [1] was found to be 0.00227 s⁻¹. In addition, in data set [2], the Km was 239 µM.
In data set [1], `CC(=O)CC(O)/C=C/c1ccccc1` (configuration not stated) displayed a k cat of 0.00145 s⁻¹. Also, the Km in data set [2] is 415 µM.
Consider `CC(=O)CC(O)/C=C/c1ccc(N(C)C)cc1` (configuration not stated), for which the k cat in data set [1] worked out at 0.042 s⁻¹. In data set [2], the Km was determined as 1250 µM.
In data set [1], `COc1ccc(/C=C/C(O)CC(C)=O)cc1` (configuration not stated) showed a k cat of 0.0067 s⁻¹. Besides, the Km in data set [2] is 522 µM.
For `CC(=O)CC(O)/C=C/c1ccc([N+](=O)[O-])cc1` (configuration not stated), the k cat in data set [1] is 0.0013 s⁻¹. The Km in data set [2] was found to be 140 µM.
With `CC(=O)CC(O)/C=C/c1ccc(Cl)cc1` (configuration not stated), in data set [1], the k cat amounted to 0.00282 s⁻¹. In addition, the Km in data set [2] came out at 324 µM.
